pIC50: −log10 of the molar value.

The target in the assay is T1, HIV-Protease (Human immunodeficiency virus type 1 group M subtype B, UniProt P04585).
T1 construct: Max-Planck-Institut für Molekulare Genetik, Berlin
Put plainly: HIV protease test (cleavage of heptapeptide Ser-Phe-Asn-Phe-Pro-Gln-Ile, HPLC quantification of Ser-Phe-Asn-Phe). It is filed as biochemical. The conditions noted are these: 2 h, 37°C; for pIC50: cloned HIV protease, pH ca. 6,0; for activity at 100 µM / Restakt. bei 10^-4 M: residual enzyme activity at 10^-4 M inhibitor, 100 % = mean of runs without inhibitor, pH ca. 6,0, 1 % DMSO; for activity at 100 µM: read-out: Restakt. bei 10^-4 M; for Restakt. bei 10^-4 M: 100 µM. The source says:
Als synthetisches Substrat ist ein Heptapeptid der Sequenz Ser-Phe-Asn-Phe-Pro-Gln-Ile geeignet. Diese Sequenz tritt im natürlichen Substrat der Protease auf und liefert bei der autokatalytischen Freisetzung nach einer Phe-Pro-Spaltung den N-terminalen Beginn der Proteasesequenz (Pro-Gln-Ile...).
Es wird eine klonierte HIV-Protease (Max-Planck-Institut für Molekulare Genetik, Berlin) benutzt. [drawing 5]
Von den Reaktionsprodukten wird Ser-Phe-Asn-Phe zur Abtrennung und quantitativen Bestimmung mittels HPLC herangezogen.
Nach 2 Stunden bei 37°C werden die Ansätze mit 225 µl HPLC-Elutionsmittel (s.u.) gestoppt. Etwa 150 µl des zentrifugierten Überstands (Eppendorf-Zentrifuge) werden in Mikrovials gefüllt. Das Injektionsvolumen für die HPLC-Trennung beträgt 20 µl. Ser-Phe-Asn-Phe wird durch Vergleich mit einem externen Standard bekannter Konzentration (0,5 µg/ 20 µl) quantitativ bestimmt und stellt die Meßgröße der Enzymaktivität (µg Tetrapeptid pro 20 µl Meßprobe) dar. Bezugswert (= 100 % Enzymaktivität) ist der Mittelwert aus 2 oder mehr Ansätzen ohne Inhibitor. Als Standard-Inhibitor wird Pepstatin A (10⁻⁴ oder 10⁻⁵ M) verwendet.
• a) Substratlösung: 2 mg Ser-Phe-Asn-Phe-Pro-Gln-Ile werden in 1 ml MGTE 15-Puffer gelöst. • b) Testsubstanzen: Diese werden 10⁻² oder 10⁻³ M in Dimethylsulfoxid (DMSO) gelöst und 1 : 40 mit MGTE 15-Puffer verdünnt; 10 µl dieser Lösung werden pro Ansatz verwendet; die Endkonzentration des Präparates beträgt 10⁻⁴ bzw. 10⁻⁵ M; die DMSO-Konzentration in allen Testansätzen ist 1 %. Für IC₅₀-Bestimmungen wird das Präparat, ausgehend von 10⁻² M, mit 100 % DMSO in der geeigneten Weise verdünnt. • c) Proteaselösung: Das Enzym wird mit MGTE 25-Puffer auf eine geeignete Konzentration verdünnt. • d) MGTE 15/25-Puffer 20 mM Morpholinoethansulfonsäure (MES) 15 (25) % (w/v) Glyzerin 0,1 % (v/v) Triton® X 100 (vgl. Merck Index 10, 6601) 5 mM EDTA 0,5 M NaCl 1 mM Dithiothreit (nur für MGTE 25) 1 mM Phenylmethylsulfonylfluorid (PMSF) Der pH-Wert soll ca. 6,0 betragen. • e) HPLC-Elutionsmittel: Eine 0,1 M Phosphorsäure-Lösung wird mit Triethylamin auf pH 2,5 eingestellt. Aus dieser Lösung wird ein Phosphorsäure-Acetonitril-Gemisch mit 22,6 Gewichts-Prozent Acetonitril hergestellt.
Säule: Radial Pak LC Cartridge, 8 mm/C18, 5 µ (der Fa. Waters, USA). Fluß: 1 ml/min Detektoreinstellung: 215 nm, 0,08 AU Zeit pro Analyse: 12 min; Retentionszeiten: Heptapeptid ca. 9,5 min, Tetrapeptid ca. 5,2 min Laufmittel: 77,4 Gew.-% 0,1 M H₃PO₄/pH 2,5 22,6 Gew.-% Acetonitril

For the compound `CCC[C@H](NC(=O)C(Cc1cccc2ccccc12)CS(=O)(=O)C(C)(C)C)C(=O)NC(CC(CC)CC)B1OC(C)(C)C(C)(C)O1` (stereo partly drawn) [Beispiel 48, [3-t-Butylsulfonyl,2-(1-naphthylmethyl)]propionyl-Nva-[3-Ethyl,1-(4,4,5,5-tetramethyl-1,3,2-dioxaborolan-2-yl)]pentylamid], the pIC50 (usually the IC50 on a negative log10 scale, so that one unit is a factor of ten) was 4.22 and the activity at 100 µM was determined as 32%.

For the compound “[3-t-Butylsulfonyl,2,(2-thienylmethyl)]propionyl-Thi-(Cyclohexylmethyl,dihydroxyboryl)methylamid [Beispiel 31]”, the “Restakt. bei 10^-4 M” value was 59%.

As for `CC1(C)OB(C(Cc2ccccc2)NC(=O)[C@H](CC(N)=O)NC(=O)C(Cc2ccccc2)CS(=O)(=O)C(C)(C)C)OC1(C)C` (stereo partly drawn) [Beispiel 45, (2-Benzyl,3-t-butylsulfonyl)propionyl-Asn-[Benzyl,(4,4,5,5-tetramethyl-1,3,2-dioxaborolan-2-yl)]methylamid], the pIC50 is 4.00 and the activity at 100 µM stood at 49%.

Turning to “Iva-Phe-Nva-(Cyclooctylmethyl,dihydroxyboryl)methylamid [Beispiel 20]”, the “Restakt. bei 10^-4 M” value is given as 27%.

Turning to “Iva-Phe-Nva-(Cyclohexylmethyl,dihydroxyboryl)methylamid [Beispiel 5]”, the pIC50 is 4.15 and the “Restakt. bei 10^-4 M” value worked out at 38%.

As to `CCC[C@H](NC(=O)C(Cc1ccccc1)CS(=O)(=O)C(C)(C)C)C(=O)NC(CC1CCCCC1)B1OC(C)(C)C(C)(C)O1` (stereo partly drawn) [Beispiel 35, (2-Benzyl,3-t-butylsulfonyl)propionyl-Nva-[Cyclohexylmethyl,(4,4,5,5-tetramethyl-1,3,2-dioxaborolan-2-yl)]methylamid], the pIC50 was 4.40 and the activity at 100 µM was 22%.

Consider `CCC[C@H](NC(=O)C(Cc1ccccc1)CS(=O)(=O)C(C)(C)C)C(=O)NC(CC(CC)CC)B1OC(C)(C)C(C)(C)O1` (stereo partly drawn) [Beispiel 49, (2-Benzyl,3-t-butylsulfonyl)propionyl-Nva-[3-Ethyl,1-(4,4,5,5-tetramethyl-1,3,2-dioxaborolan-2-yl)]pentylamid], for which the activity at 100 µM turned out to be 46%.

As to `CC(C)[C@H](NC(=O)C(Cc1cccc2ccccc12)CS(=O)(=O)C(C)(C)C)C(=O)NC(CC1CCCCC1)B1OC(C)(C)C(C)(C)O1` (stereo partly drawn) [Beispiel 51, [3-t-Butylsulfonyl, 2-(1-naphthylmethyl)]propionyl-Val-[cyclohexylmethyl,(4,4,5,5-tetramethyl-1,3,2-dioxaborolan-2-yl)]methylamid], the pIC50 was 5.30 and the activity at 100 µM came out at 5%.

`CCC[C@H](NC(=O)[C@H](Cc1ccccc1)NC(=O)CC(C)C)C(=O)NC(CC1CCCCCCC1)B1OC(C)(C)C(C)(C)O1` (stereo partly drawn) [Beispiel 11]: the activity at 100 µM amounted to 96%.

For the compound `CC(C)CC(=O)N[C@@H](Cc1cccs1)C(=O)N[C@@H](Cc1c[nH]cn1)C(=O)NC(CC1CCCCC1)B1OC(C)(C)C(C)(C)O1` (stereo partly drawn) [Beispiel 4], the activity at 100 µM worked out at 96%.

As to `CC1(C)OB(C(CC2CCCCC2)NC(=O)[C@H](CC(N)=O)NC(=O)C(Cc2cccs2)CS(=O)(=O)C(C)(C)C)OC1(C)C` (stereo partly drawn) [Beispiel 52, [3-t-Butylsulfonyl, 2-(2-thienylmethyl)]propionyl-Asn-[cyclohexylmethyl,(4,4,5,5-tetramethyl-1,3,2-dioxaborolan-2-yl)]-methylamid], the pIC50 was 4.00 and the activity at 100 µM amounted to 49%.

As to `CCC[C@H](NC(=O)[C@H](Cc1ccccc1)NC(=O)CC(C)C)C(=O)NC(CC1CCCCC1)B1OC(C)(C)C(C)(C)O1` (stereo partly drawn) [Beispiel 1, Iva-Phe-Nva-[Cyclohexylmethyl,(4,4,5,5-tetramethyl-1,3,2-dioxaborolan-2-yl)]methylamid], the pIC50 was 4.40 and the activity at 100 µM is 28%.

As for `CCC[C@H](NC(=O)C(Cc1cccc2ccccc12)CS(=O)(=O)C(C)(C)C)C(=O)NC(CC(C)C)B1OC(C)(C)C(C)(C)O1` (stereo partly drawn) [Beispiel 41, [3-t-Butylsulfonyl,2-(1-naphthylmethyl)]propionyl-Nva-[3-methyl,1-(4,4,5,5-tetramethyl-1,3,2-dioxaborolan-2-yl)]butylamid], the activity at 100 µM was found to be 35%.

`CCC[C@H](NC(=O)C(Cc1ccccc1)CS(=O)(=O)C(C)(C)C)C(=O)NC(B1OC(C)(C)C(C)(C)O1)C(C)CC` (stereo partly drawn) [Beispiel 50, (2-Benzyl,3-t-butylsulfonyl)propionyl-Nva-[2-Methyl,1-(4,4,5,5-tetramethyl-1,3,2-dioxaborolan-2-yl)]butylamid]: the activity at 100 µM came out at 53%.

As for `CC(C)CC(=O)N[C@@H](Cc1ccccc1)C(=O)N(C)[C@@H](Cc1ccccc1)C(=O)NC(CC1CCCCC1)B1OC(C)(C)C(C)(C)O1` (stereo partly drawn) [Beispiel 16], the activity at 100 µM came out at 70%.

Take `CCCC(NC(=O)C(Cc1ccccc1)NC(=O)CC(C)C)C(=O)NC(CC1CCCCC1)B1OC2CC3CC(C3(C)C)C2(C)O1` (stereo not drawn) [Beispiel 12, Iva-Phe-Nva-[Cyclohexylmethyl, (-)-Pinandioxyboryl]methylamid]: the activity at 100 µM was found to be 64%.

As to `CCC[C@H](NC(=O)C(Cc1ccccc1)CS(=O)(=O)C(C)(C)C)C(=O)NC(Cc1ccccc1)B1OC(C)(C)C(C)(C)O1` (stereo partly drawn) [Beispiel 44], the activity at 100 µM worked out at 72%.

In the case of `CC1(C)OB(C(CC2CCCCC2)NC(=O)[C@H](CC(N)=O)NC(=O)C(Cc2cccc3ccccc23)CS(=O)(=O)C(C)(C)C)OC1(C)C` (stereo partly drawn) [Beispiel 53, [3-t-Butylsulfonyl,2-(1-naphthylmethyl)]propionyl-Asn-[cyclohexylmethyl,(4,4,5,5-tetramethyl-1,3,2-dioxaborolan-2-yl)]methylamid], the pIC50 was 5.00 and the activity at 100 µM came to 10%.

With “(3-t-Butylsulfonyl)propionyl-Nva-(1-Naphthylmethyl, dihydroxyboryl)methylamid [Beispiel 27]”, the “Restakt. bei 10^-4 M” value is 77%.

For `CCC[C@H](NC(=O)C(Cc1cccs1)CS(=O)(=O)C(C)(C)C)C(=O)NC(CC1CCCCCC1)B1OC(C)(C)C(C)(C)O1` (stereo partly drawn) [Beispiel 40, [3-t-Butylsulfonyl,2-(2-thienylmethyl)]propionyl-Nva-[Cycloheptylmethyl,(4,4,5,5-tetramethyl-1,3,2-dioxaborolan-2-yl)]methylamid], the activity at 100 µM was determined as 46%.

Take `CCC[C@H](NC(=O)[C@H](Cc1ccccc1)NC(=O)CC(C)C)C(=O)NC(CC1CCCCCC1)B1OC(C)(C)C(C)(C)O1` (stereo partly drawn) [Beispiel 15, Iva-Phe-Nva- (Cycloheptylmethyl,(4,4,5,5-tetramethyl-1,3 2-dioxaborolan-2-yl)]methylamid]: the activity at 100 µM came out at 86%.

Turning to “Iva-Phe-Nva-[Cycloundecylmethyl, (4,4,5,5-tetramethyl-1,3,2-dioxaborolan-2-yl)]methylamid [Beispiel 13]”, the “Restakt. bei 10^-4 M” value is reported as 35%.

Turning to “Iva-Phe-Nva-[Cyclohexylmethyl,[(N-B)-(2,2′-iminodiethanolato)-boryl]]methylamid [Beispiel 6]”, the “Restakt. bei 10^-4 M” value is reported as 41%.

In the case of `CC(C)CC(=O)N[C@@H](Cc1ccccc1)C(=O)N[C@@H](Cc1c[nH]cn1)C(=O)NC(CC1CCCCCC1)B1OC(C)(C)C(C)(C)O1` (stereo partly drawn) [Beispiel 18, Iva-Phe-His-[Cycloheptylmethyl,(4,4,5,5-tetramethyl-1,3,2-dioxaborolan-2-yl)]methylamid], the activity at 100 µM amounted to 36%.

For the compound `CC(C)[C@H](NC(=O)C(Cc1ccccc1)CS(=O)(=O)C(C)(C)C)C(=O)NC(CC1CCCCC1)B1OC(C)(C)C(C)(C)O1` (stereo partly drawn) [Beispiel 38, (2-Benzyl,3-t-butylsulfonyl)propionyl-Val-[Cyclohexylmethyl,(4,4,5,5-tetramethyl-1,3,2-dioxaborolan-2-yl)]methylamid], the pIC50 was 5.05 and the activity at 100 µM was 11%.

As for `CCC[C@H](NC(=O)C(Cc1ccccc1)CS(=O)(=O)C(C)(C)C)C(=O)NC(B1OC(C)(C)C(C)(C)O1)C1CCCCCC1` (stereo partly drawn) [Beispiel 46], the pIC50 is 4.40 and the activity at 100 µM came out at 45%.
